# Assay results from PMC12535076, “Neurotherapeutic effects of Vutiglabridin as a Paraoxonase-2 modulator in preclinical models of Parkinson’s disease” (Molecular Neurodegeneration, 2025).
# Several values for one entry are separate records, joined by “and”; a condition that tells them apart may be missing. Equal values may be shown once.
# Molecular target: T1, recombinant human PON2 (rePON2) (Homo sapiens, UniProt Q15165)
# T1 construct: made in house; host or cells: E. coli BL21 (DE3), pET21b
# T1 sequence (Q15165 1-354 isoform Q15165-1): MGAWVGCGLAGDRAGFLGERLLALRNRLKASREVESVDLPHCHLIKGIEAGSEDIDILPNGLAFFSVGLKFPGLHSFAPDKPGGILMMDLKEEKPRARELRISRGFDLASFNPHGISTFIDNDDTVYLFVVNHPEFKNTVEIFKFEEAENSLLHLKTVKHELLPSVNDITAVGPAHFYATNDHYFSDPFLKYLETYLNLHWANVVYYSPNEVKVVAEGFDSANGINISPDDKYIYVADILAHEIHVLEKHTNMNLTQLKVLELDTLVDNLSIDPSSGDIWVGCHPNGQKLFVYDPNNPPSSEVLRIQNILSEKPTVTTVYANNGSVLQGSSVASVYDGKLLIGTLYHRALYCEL
# Assay: Mass spectrometry-based binding assay
# Settings: 10 nM Vuti incubated with rePON2 0-500 nM for 30 min, LC-MS/MS; read-out: dissociation constant (Kd)
# Description: The codon-optimization of HsPON2 was for Escherichia coli system and synthesized according to the full-length open reading frame (GenBank accession No. AAC41995.1) from National Center for Biotechnology Information (NCBI; http://www.ncbi.nlm.nih.gov). The HsPON2 gene was amplified by a standard PCR method with a primer set (Forward; 5’-[…]-3’, Reverse; 5’-[…]-3’) and inserted into an expression vector (pET21b; New England Biolabs, USA) using NdeI and XhoI restriction enzyme sites (underlined). […] The recombinant construct was transformed into E. coli BL21 (DE3) competent cells. The transformed cells were activated overnight and transferred to 1 L of LB broth (BD bioscience, USA) with 100 µg/mL ampicillin (Duchefa Biochemie, The Netherlands) containing 0.1% glucose, and then incubated at 37 ℃ and 200 rpm in incubator (Vision Scientific, Korea) until reaching the optical density of 0.6–0.8 at 600 nm (OD600). […] The eluted HsPON2 protein was analyzed by a 12% SDS-PAGE and concentrated up to approximately 1 mL by 10 kDa filter-size amicon (Merck Millipore, USA). […]
# The method followed the concept of previously established protocol. […] The supernatant, which now contains rePON2-bound Vuti, was collected, dried, and re-suspended in acetonitrile, and the drug quantification was performed via LC-MS/MS analysis.
compound,measurement,value
"CCOc1ccc(C2COc3c(ccc4c3CCC(C)(C)O4)C2)c(O)c1 (stereo not shown) [Vuti, Vutiglabridin]",Kd,78.9 nM and 78 nM
